Assays:
[1] = system: hemoglobin polymerization; conditions: artificially deoxygenated blood; cited from earlier work
[2] = system: fetal globin mRNA (human erythroleukemia cells); assay: Fetal globin mRNA in erythroleukemia cells (primer extension); assay type: cell-based
Protocol: Compounds were tested for increased expression of the human globin genes in human erythroid cells. In addition, as the cell line being tested is a tumor cell line, the assay determines if differentiation, a growth inhibitory effect on cancer cells, is induced by the compounds tested. Human erythroleukemia cells were cultured in RPMI media with 10% fetal calf serum alone or with treatment with various compounds for 4 days. Globin MRNA was quantitated by primer extension analysis. Fetal globin mRNA was compared to the amount of fetal globin mRNA produced in untreated cells during the same culture period. The quantitation was expressed as a percent of alpha globin MRNA which was constant. Results are expressed proportional to α-globin mRNA (Table 3).

K562 = assay: Growth of human erythroid cell line K562; assay type: cell-based; conditions: 0.5 mM, over 3 days
Protocol: Such activities might limit their utility for treatment of anemias such as occur in thalassemia, but alternatively would be useful for anticancer effects. […]
(§1) Cell viability analyses were performed using fluorescent staining to detect living cells. Cells were in log phase of growth in 6-well dishes when used in proliferation assays. For enumeration of living cells, wells were washed once with medium to remove nonadherent or dead cells. Remaining live cells were labeled with Calcein-AM for 20 minutes at 37° C. and washed once. Fluorescence intensity of adherent live cells was read on a CytoFluor 2300 Fluorescence Plate Scanner (Millipore; Bedford, Mass.) at excitation and emission wavelengths of 485 and 530 nm, respectively. The fluorescence intensity of a well was proportional to the number of living cells in the well. Background fluorescence was measured separately for each plate and subtracted from all readings. Each experiment was performed in triplicate or quadruplicate. The standard deviation (SD) of repetitive readings was less than 30% of the mean.
At higher concentrations, still easily achievable in vivo, arginine butyrate (0.5 mM) and dihydrocinnamic acid (greater than 0.5 mM) inhibited growth of this tumor cell line by approximately 50%. Therefore, these compounds are also useful as anti-tumor agents.

K562 cells = assay: Dose response of cell growth, trypan blue exclusion (FIG. 3); assay type: cell-based, human; conditions: up to 2.0 mM, day 4
Protocol: FIG. 3 Cell viability as determined by the comparative numbers of total and viable K562 cells in the presence of increasing concentrations of (A) phenoxyacetic acid, (B) dihydrocinnamic acid, (C) butyric acid ethyl ester, (D) arginine butyrate, and (E) isobutyramide.
Dose response curves at dosages of up to 2.0 mM were also determined for phenoxyacetic acid (PAA; FIG. 3A), dihydrocinnamic acid (DHC; FIG. 3B), butyric acid ethyl ester (BAEE; FIG. 3C), arginine butyrate (AB; FIG. 3D) and isobutyramide (IBT; FIG. 3E). Cells were counted on day 4 of treatment and viable cells identified by trypan blue exclusion.

[3] = system: erythroid cells (peripheral blood); assay: Erythroid cell viability by fluorescent staining (Calcein-AM), FIG. 2; assay type: cell-based, human; conditions: 0.5 mM, vs untreated controls
Protocol: FIG. 2 Peripheral blood cell viability after incubation with arginine butyrate, dihydrocinnamic acid, phenoxyacetic acid and butyric acid ethyl ester.
as §1, with “Compositions were tested for the ability to directly stimulate erythroid cell growth. Cell growth stimulation is a useful property for an agent to be used to treat anemias and distinguishes such agents from the cytotoxic drugs currently being tested for treatment of hemoglobinopathies. Cell viability” for “Cell viability”, “labeled with 2 μM 2',7'-bis-(carboxyethyl)-5-(and 6)-carboxy-fluorescein acetoxy-methyl ester (Calcein-AM) (Molecular Probes; Eugene, Oreg.) for 20” for “labeled with Calcein-AM for 20”, “intensity of live cells” for “intensity of adherent live cells”, “the mean. Results are depicted in FIG. 2.” for “the mean.”

[4] = system: fetal globin (gamma globin); assay: Fetal globin expression in erythroid progenitor cells from cord blood; assay type: cell-based, human
Protocol: Compositions were tested for activity in inducing fetal globin expression and protein production in erythroid progenitor cells cultured from human cord blood and analyzed as described by S. P. Perrine et al. (Blood 74: 454-60, 1989). Briefly, mononuclear cells were cultured in IMDM with 30% fetal calf serum and 2 units erythropoietin per ml to induce erythroid differentiation. Colonies were harvested on day 12-13, incubated with radio-labelled (^3 H) leucine, and further incubated in leucine-free media, still in the presence of compounds, overnight. Globin composition in the erythroid cells was analyzed by laser densitometry of electrophoretically separated globin chains stained with Coomassie blue, and by autoradiography. Treated cells were incubated for 12-13 days (Table 2, Experiments A and B) or overnight (Table 2, Experiment C) in the presence of the indicated compounds and compared to untreated control cells cultured from the same human subject.

human erythroid cells = assay: DNA fragmentation by flow cytometry (degradation of DNA); assay type: cell-based
Protocol: Such activities might limit their utility for treatment of anemias such as occur in thalassemia, but alternatively would be useful for anticancer effects. To determine cell viability, human erythroid cells were cultured in the presence and absence of these compounds for 4 days and the amount of DNA fragmentation which occurred was measured.
Flow cytometric determination of DNA profiles and DNA fragmentation were determined. Cytometric analysis was performed with a FACScan (Becton Dickenson Instruments; Columbia, Md.). The data analysis and display were performed using the Cell-Fit software program. Approximately 0.5×10^6 cells were washed twice with PBS and resuspended in 1 ml of 1% sodium citrate, 0.1% Triton X-100 and 50 μg of propidium iodide/ml. Resulting permeabilized cells were kept in the dark at 4° C. overnight before DNA profile or DNA fragmentation analysis (Table 4).

SMILES: O=C(O)COc1ccc(Cl)cc1 [p-chloro phenoxy acetic acid]
- inhibition of polymerization [1]: inhibit polymerization

SMILES: CC(C)(Oc1ccc(Cl)cc1)C(=O)O [clofibric acid]
- inhibition of polymerization [1]: inhibit polymerization

SMILES: CCCC(=O)OCC [BAEE, butyric acid ethyl ester]
- induction of fetal globin mRNA [2]: significantly increased the induction of fetal globin MRNA
- stimulation of fetal globin expression relative to AB ([2]; 1.0 mM): over two times greater than even AB alone
- Gamma/Alpha ([2]; 1.0 mM, 4 days, untreated 0.46): 0.90
- activation at 1000 µM ([2]; Homo sapiens, 96 h, 1.0 mM, 4 days, read-out: Gamma Globin mRNA (increase)): 44%
- growth of K562 (K562): either did not inhibit, or slightly enhanced growth
- proliferation (K562 cells): did not significantly inhibit proliferation
- erythroid cell growth and proliferation [3]: either had no effect or stimulated erythroid cell growth and proliferation
- Gamma/(Gamma + Beta) ([4]; Exp. A, 0.1 mM, 12-13 days, untreated 76.0%): 89.5%
- Gamma/(Gamma + Beta) ([4]; Exp. B, 0.2 mM, 12-13 days, untreated 25.4%, 27.5%): 74.0%
- Gamma/(Gamma + Beta) ([4]; Exp. C, 0.1 mM, overnight, untreated 52.0%): 64.6%
- proportion of degraded DNA (human erythroid cells; 1.0 mM to 2.0 mM, untreated 26%): 13.8%
- Degraded DNA (human erythroid cells; 2.0 mM, 4 days, control 26%, 22%): 13.8%
- DNA fragmentation / cell viability / DNA integrity (human erythroid cells; DNA fragmentation assays): reduce DNA fragmentation
